Reference: PubChem BioAssay AID248 (DTP/NCI, 2004)
Several values for one entry are separate records, joined by “and”; a condition that tells them apart may be missing. Equal values may be shown once. Toxic doses and inconclusive results are not listed. Rule as the data show it: active = T/C of 150% or more; inactive = T/C below 125%.

System: L1210 leukemia ip in BDF1 mice, survival T/C
Assay: NCI In Vivo Anticancer Drug Screen. Data for tumor model L1210 Leukemia (intraperitoneal) in B6D2F1 (BDF1) mice
Settings: endpoint: mean survival time, schedule: Q04DX003 (ip), vehicle: saline with Tween-80, higher = longer survival
How it was run: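 Transplantable tumor model; survival measured in treated vs vehicle control mice. Value = treated/control.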

Measured: T/C

Cc1cccc(C(=O)C=C(C(F)(F)F)C(F)(F)F)c1
inactive: dose: 12.5 mg/kg/injection 103 % of control | dose: 25.0 mg/kg/injection 111 % of control | dose: 50.0 mg/kg/injection 102 % of control and 118 % of control
